Results taken from US20260053778A1, “USE OF NOVEL PPAR ACTIVITY MODULATOR FOR PREVENTION, AMELIORATION OR TREATMENT OF DEGENERATIVE BRAIN DISEASES” (POSTECH RESEARCH AND BUSINESS DEVELOPMENT FOUNDATION, priority 2022, published 2026).

Key:
[1] = tested on: microglial cells isolated from mice; experiment: Western blotting of NF-κB, NLRP-3 and ASC in primary microglia; format: cell-based, mouse; conditions: primary microglia treated with Aβ aggregates or LPS, Western blot
Description: To confirm the mechanism by which DTMB exerts its anti-inflammatory effect, microglial cells isolated from mice were treated with Aβ aggregates or LPS to induce an inflammatory response, and then DTMB was treated to determine the levels of NF-κB, NLRP-3, and ASC proteins by western blotting.
The cells were lysed with lysis buffer containing 50 mM Tris (pH 7.4), 140 mM NaCl, 5 mM EDTA, and protease inhibitor tablets, and then sonicated. The protein concentration of the lysate was determined using Bradford reagent (AMERSCO, MA, USA). Proteins were separated by sodium dodecyl sulfate (SDS) polyacrylamide gel electrophoresis, transferred to nitrocellulose membranes (Pall Corporation, New York, NY, USA), and incubated with blocking buffer (5% nonfat dry milk and 0.1% Tween 20 in TBS) for 30 min. Western blot analysis was performed using primary antibodies against NF-κB, NLRP3, and ASC (Cell Signaling Technology, Danvers, MA, USA). Secondary antibodies from rabbit (Promega), rat, and goat (Bethyl Laboratories) were used, and detection was performed using SUPEX ECL reagent (Neuronex, Korea) and ImageQuant LAS-4000 (GE Healthcare, MA, USA) according to the manufacturer's instructions. Integrated blot densities were quantified using ImageJ.

[2] = target: T1, HIS-tagged recombinant PPAR β/δ protein (Homo sapiens, UniProt Q03181); experiment: CNBr-drug and protein binding experiment, PPARβ/δ; conditions: Western blotting after 24 h incubation
T1 sequence (Q03181 211-439 limits assumed): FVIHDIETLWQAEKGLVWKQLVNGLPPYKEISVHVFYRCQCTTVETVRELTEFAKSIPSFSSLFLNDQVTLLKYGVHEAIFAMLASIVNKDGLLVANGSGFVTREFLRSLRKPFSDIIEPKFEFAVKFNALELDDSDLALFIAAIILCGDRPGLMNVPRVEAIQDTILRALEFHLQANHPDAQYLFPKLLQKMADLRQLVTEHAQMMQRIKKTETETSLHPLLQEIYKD
Description: Since the computer prediction program predicted that DTMB binds to PPAR transcription factors, CNBr-drug and protein binding experiments were conducted to confirm whether DTMB actually binds to PPAR. To determine the actual degree of drug-protein binding, the reaction of the protein of the PPAR-α, β/δ, γ ligand-binding portion with the DTMB drug-bound CNBr beads was confirmed through Western blotting.
Specifically, CNBr Sepharose 4B beads were prepared and activated according to the instructions. 100 mg of CNBr-activated Sepharose 4B beads were incubated with drugs or DMSO at 4° C. for 18 h. The drug-bound beads reacted with HIS-tagged recombinant PPAR α, β/δ, and γ proteins. After 24 h of incubation, Western blotting experiments were performed to confirm whether the recombinant proteins bound to the drug-bound beads.

BV2 microglial cell line = experiment: Cytokine ELISA in BV2 microglia; format: cell-based, mouse; conditions: BV2 treated with LPS or Aβ aggregates, DTMB 24 h
Description: To confirm a more clear anti-inflammatory effect, the microglia cell line (BV2) and microglia isolated from mice were treated with lipopolysaccharide (LPS) and Aβ aggregates to induce an inflammatory response, and then DTMB was treated to measure the decrease in cytokine levels in microglia by DTMB treatment using ELISA.
The BV2 mouse microglia cell line was provided by Professor Seok Kyung-ho of Kyungpook National University. BV2 cells were cultured in a 5% CO2 incubator with a humidified atmosphere at 37° C. with Dulbecco's Modified Eagle Medium (DMEM) (Hyclone, Logan, UT, USA) containing 5% fetal bovine serum (FBS, Hyclone) and 50 μg/mL gentamicin (Lonza, Switzerland).
Cytokine levels (TNF-α, IL-1β, and IL-6) were measured in the media of BV2 microglia and primary microglia treated with LPS (1 μg/mL) and human Aβ1-42 (5 μg/mL). Human Aβ1-42 (AnaSpec, Fremont, CA, USA) was pre-aggregated in the culture medium for 24 h before cell treatment. BV2 cells and primary microglia were seeded in 12-well plates (SPL) at a density of 1× 10^5 cells/well in 1 mL of complete medium. After 12 h, cells were treated with LPS or human Aβ1-42 and further cultured with DTMB for 24 h. […]

[3] = tested on: 5×FAD Alzheimer's dementia-induced mice; experiment: qPCR of proinflammatory cytokines in brain tissue; format: in vivo, mouse; conditions: 5×FAD mice
Source text: The gene expression levels of proinflammatory cytokines and related enzymes (II-1B, Il-6, and iNOS) in the brain tissues of the DTMB-administered and non-administered groups of 5×FAD Alzheimer's dementia-induced mice were confirmed by qPCR.

BV2 cell line = experiment: Cell viability assay (MTT), BV2; format: cell-based, mouse; conditions: BV2, 48 h, at higher concentrations
Description: (§1) Cell viability was measured by a chromogenic assay that biologically reduces 3-(4,5-dimethyl-thiazol-2-yl)-2,5-diphenyltetrazolium bromide (MTT) to formazan in living cells. Briefly, cells were cultured in 96-well plates in a final volume of 100 μL. After 24 h, the culture medium was replaced with fresh medium containing DTMB compound, and the cells were cultured for another 48 h. Next, MTT (dissolved in PBS at 5 mg/mL) was added to the culture medium. The cells were cultured in the dark at 37° C. for 1 h, and then the supernatant was removed from the wells. The formazan crystals were dissolved by adding total MTT solvent (4 mM HCl and 0.1% Nonidet P-40, both dissolved in isopropanol), and the absorbance was measured at 570 nm using a microplate reader, Infinite 200 Pro NanoQuant microplate reader (TECAN, Switzerland).

5×FAD mice = experiment: Western blot of NLRP3, NF-κB and ASC in hippocampal tissue; format: in vivo, mouse; conditions: hippocampal brain lysate
Description: The protein levels of NLRP3, NF-κB, and ASC in the hippocampal tissues isolated from 5×FAD mice and DTMB-treated 5×FAD mice were confirmed by Western blot. Western blot analysis was performed in the same manner as in Example 2-4 using primary antibodies against NLRP3, NF-κB, and ASC (Cell Signaling Technology, Danvers, MA, USA).

HMO6 cell line = experiment: Cell viability assay (MTT), HMO6; format: cell-based; conditions: HMO6, 48 h, at higher concentrations
Description: as §1

Binding of PPARβ/δ ligand-binding protein to drug-bound CNBr beads [2]: binds to all subtypes of PPAR
Compound: COc1ccc(-c2cc(=O)oc3c(C)c(OC(=O)[C@H](Cc4c[nH]c5ccccc45)NC(=O)OC(C)(C)C)ccc23)cc1 [DTMB, [4-(4-Methoxyphenyl)-8-methyl-2-oxochromen-7-yl](2S)-3-(1H-indol-3-yl)-2-[(2-methylpropan-2-yl)oxycarbonylamino]propanoate]
NF-κB protein level [1]: reducing NF-κB
NLRP3 protein level [1]: reduced
Level of IL-6 (BV2 microglial cell line): statistically significantly reduced
Level of TNF-α (BV2 microglial cell line): statistically significantly reduced
Expression level of Il-1β [3]: decreased
Expression level of Il-6 [3]: decreased
Expression level of iNOS [3]: decreased
Cytotoxicity (MTT) (BV2 cell line): no cytotoxicity
ASC level (5×FAD mice): did not change significantly
Protein level of NF-κB (5×FAD mice): decreased
Protein level of NLRP3 (5×FAD mice): decreased
Cytotoxicity (MTT) (HMO6 cell line): no cytotoxicity
